# Data taken from US8216644B2, “Controlling wood staining and color during post-harvest processing” (Purdue Research Foundation, priority 2006, dated 2012).
# Assays:
# [1] = test system: freshly cut black walnut wood
# [2] = test system: freshly cut sugar maple wood; experiment: test strip assay on freshly cut wood, sugar maple
smiles,measurement,setting,value
NC(N)=O.OO [hydrogen peroxide urea adduct],staining of wood,"[1]; 0.5 and 1.0% (w:w) concentration range, FIG. 4",visible staining
same,staining of wood (experimental spots),"[1]; test strips 0.5, 1.0, 5.0 and 10% (w:w), FIG. 2",visible on top of the background staining
same,staining of wood at 10%,"[2]; 10% (w:w), FIG. 1",chemical breakdown of the staining due to bulk oxidation
same,"background gray scale values (bg), relative darkness","[2]; image analysis of FIG. 3, plot profile, FIG. 5",increase in wood darkening with increasing hydrogen peroxide urea adduct concentrations
same,concentration range in which the staining reaction appears saturated,"[2]; test strips 0, 0.5, 1.0, 5.0 and 10% (w:w), FIG. 1",0.5-1.0%
same,staining reaction over concentration range,"[2]; test strips 0.05, 0.1, 0.5 and 1.0% (w:w), FIG. 3",shows a dose response curve
